This note sets out measurements from ChEMBL document CHEMBL1201862, “PubChem BioAssay data set” (2004).

One assay concerns the target fMet-Leu-Phe receptor (Homo sapiens, UniProt P21462). Briefly: FPR ligands, dose response (AID 519). The assay is classed as functional.
The nature of assay [1]: Vero E6 cell cytotoxicity, dose response, cytotoxicity control for non-replicating M. tuberculosis project, secondary assay (AID 492998). The assay is classed as functional, VeroE6. Particulars: Vero C1008.
The nature of assay [2]: A375 melanoma cell viability loss, dose response, counter-screen for MITF inhibitor project, CellTiter-Glo luminescence, dry powder, set 4 (AID 624364).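 Further: A375 melanoma cells are MITF independent so this is a counter screen.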 In kind it is functional, cell-based. To be noted: A-375.
Assay [3] in a line: THP-1 cell cytotoxicity, dose response, cytotoxicity control for non-replicating M. tuberculosis project (AID 489025). In kind it is functional.
The nature of assay [4]: A375 melanoma cell cytotoxicity, dose response, counter-screen for MITF inhibitor project, CellTiter-Glo luminescence, dry powder, set 2 (AID 624489).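 Further: actives are compounds lowering A375 viability meaning general cytotoxicity.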 In kind it is functional, cell-based. To be noted: A-375.
For assay [5], the target named is T1, Microphthalmia-associated transcription factor (Homo sapiens, UniProt O75030).
T1 sequence (O75030 whole entry): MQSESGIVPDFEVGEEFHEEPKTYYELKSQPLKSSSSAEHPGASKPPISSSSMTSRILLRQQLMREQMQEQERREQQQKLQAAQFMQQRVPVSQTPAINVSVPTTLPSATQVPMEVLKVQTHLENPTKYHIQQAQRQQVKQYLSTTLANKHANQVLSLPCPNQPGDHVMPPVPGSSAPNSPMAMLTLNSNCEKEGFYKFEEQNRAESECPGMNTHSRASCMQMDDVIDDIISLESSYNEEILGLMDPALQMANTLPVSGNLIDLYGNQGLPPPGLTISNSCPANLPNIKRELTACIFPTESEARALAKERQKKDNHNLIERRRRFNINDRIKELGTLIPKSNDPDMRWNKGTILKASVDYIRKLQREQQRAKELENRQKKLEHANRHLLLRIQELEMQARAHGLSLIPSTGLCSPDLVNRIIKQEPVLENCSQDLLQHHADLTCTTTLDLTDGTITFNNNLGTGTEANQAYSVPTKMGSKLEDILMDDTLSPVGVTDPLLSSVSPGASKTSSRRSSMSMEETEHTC
Briefly: TRPM1 promoter luciferase signal decrease, dose response, MITF inhibitor project, cell-based, SK-MEL-5, cherry-picked, set 3 (AID 493073).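 Further: SK-MEL-5 melanoma cells with luciferase driven by the MITF target TRPM1 promoter.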 In kind it is functional.

Assay [6] in a line: cells.
Assay [7] concerns the target Mitogen-activated protein kinase 10 (Homo sapiens, UniProt P53779). Briefly: Dose response biochemical screening assay for inhibitors of c-Jun N-Terminal Kinase 3 (JNK3). [Related pubchem assays: 746 ].
In another assay the target is Major prion protein (Homo sapiens, UniProt P04156). In kind it is functional, cell-based.
A short description of assay [8]: cytotoxicity toward NIH3T3 fibroblasts, dose response, counter-screen, cell-based, ATP luminescence, mouse fibroblasts (AID 2010).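 Further: cells exposed to compound for about 90 hours before reading.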 The assay is classed as functional.
A short description of assay [9]: inhibitors of intracellular T. cruzi replication, confirmation, NIH3T3 host cells, beta-gal luminescence (AID 2044).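 Further: intracellular parasites grown in NIH/3T3 mouse fibroblasts as host cells; luminescent beta-galactosidase reporter signal from transgenic T. cruzi replicating inside host cells; inhibitors lower the luminescence signal.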 In kind it is functional, cell-based.
A short description of assay [10]: Luminescence-based cell-based high throughput dose response assay to identify activators of the DAF-12 from the parasite S. stercoralis (ssDAF-12). The assay is classed as functional.
A short description of assay [11]: cells. The assay is classed as functional, cell-based.
Assay [12] has as its system HEK293. Briefly: cells. In kind it is functional, cell-based. Particulars: Homo sapiens.
Another assay deals with T2, Protein RecA (Mycobacterium tuberculosis, UniProt P9WHJ3).
T2 sequence (P9WHJ3 whole entry): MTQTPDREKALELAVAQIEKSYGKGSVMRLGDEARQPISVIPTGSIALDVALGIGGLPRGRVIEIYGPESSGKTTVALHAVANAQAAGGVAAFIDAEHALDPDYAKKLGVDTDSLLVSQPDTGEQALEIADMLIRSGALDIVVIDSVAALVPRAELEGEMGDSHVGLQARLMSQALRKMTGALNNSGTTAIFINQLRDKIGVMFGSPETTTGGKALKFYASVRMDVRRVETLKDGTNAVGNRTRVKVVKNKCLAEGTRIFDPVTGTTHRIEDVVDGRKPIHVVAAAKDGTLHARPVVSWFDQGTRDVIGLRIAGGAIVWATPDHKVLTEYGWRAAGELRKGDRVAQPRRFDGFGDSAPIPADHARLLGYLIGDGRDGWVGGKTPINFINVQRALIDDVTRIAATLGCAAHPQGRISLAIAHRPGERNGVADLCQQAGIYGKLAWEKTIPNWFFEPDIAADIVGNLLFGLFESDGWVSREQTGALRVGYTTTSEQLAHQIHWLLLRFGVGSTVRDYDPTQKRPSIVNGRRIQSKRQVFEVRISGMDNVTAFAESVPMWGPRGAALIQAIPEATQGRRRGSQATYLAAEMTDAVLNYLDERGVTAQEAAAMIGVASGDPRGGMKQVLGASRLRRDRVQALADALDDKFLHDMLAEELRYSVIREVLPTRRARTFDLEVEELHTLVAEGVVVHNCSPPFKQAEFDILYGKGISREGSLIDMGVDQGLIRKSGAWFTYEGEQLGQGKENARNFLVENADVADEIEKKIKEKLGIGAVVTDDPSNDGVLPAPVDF
Briefly: Fluorescence Cell-Free Homogeneous Dose Retest to Identify Inhibitors of RecA-Intein Splicing Activity. [Related pubchem assays (depositor defined):AID2097, AID2223, AID489010, AID492950]. In kind it is functional.

The subject of assay [13] is HEK293. Briefly: NOD2 signaling inhibitors in MDP-stimulated cells, cell-based, uHTS, luminescence (AID 2001). In kind it is functional. To be noted: Homo sapiens.
For assay [14], the target named is T3, Replicative DNA helicase DnaB (Mycobacterium tuberculosis, UniProt P9WMR3).
T3 sequence (P9WMR3 whole entry): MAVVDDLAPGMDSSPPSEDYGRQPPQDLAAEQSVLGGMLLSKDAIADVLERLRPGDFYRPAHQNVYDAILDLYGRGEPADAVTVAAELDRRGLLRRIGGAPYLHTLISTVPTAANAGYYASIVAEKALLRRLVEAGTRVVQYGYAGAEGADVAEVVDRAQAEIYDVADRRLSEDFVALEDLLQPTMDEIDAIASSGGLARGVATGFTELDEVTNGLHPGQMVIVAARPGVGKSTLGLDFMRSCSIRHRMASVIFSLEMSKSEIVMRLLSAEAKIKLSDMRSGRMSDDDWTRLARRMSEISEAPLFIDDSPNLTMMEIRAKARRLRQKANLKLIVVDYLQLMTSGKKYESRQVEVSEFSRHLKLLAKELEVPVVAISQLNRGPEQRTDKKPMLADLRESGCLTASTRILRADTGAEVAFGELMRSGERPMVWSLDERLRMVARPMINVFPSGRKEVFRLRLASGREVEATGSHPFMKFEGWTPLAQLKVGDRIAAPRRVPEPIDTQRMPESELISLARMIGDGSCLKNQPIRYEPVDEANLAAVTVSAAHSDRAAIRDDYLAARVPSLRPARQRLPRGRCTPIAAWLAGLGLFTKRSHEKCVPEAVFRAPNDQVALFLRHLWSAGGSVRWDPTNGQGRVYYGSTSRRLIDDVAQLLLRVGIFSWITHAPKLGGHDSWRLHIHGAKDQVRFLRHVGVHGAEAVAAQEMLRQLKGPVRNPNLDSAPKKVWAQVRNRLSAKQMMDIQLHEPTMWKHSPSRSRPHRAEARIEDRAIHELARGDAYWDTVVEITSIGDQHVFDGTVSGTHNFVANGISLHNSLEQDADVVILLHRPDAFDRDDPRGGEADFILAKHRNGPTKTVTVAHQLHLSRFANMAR
Kind of assay: DnaB intein splicing inhibitors, dose response, biochemical, cell-free fluorescence (AID 449749). In kind it is functional.

The target of assay [15] is T4, Trace amine-associated receptor 1 (Homo sapiens, UniProt Q96RJ0).
T4 sequence (Q96RJ0 whole entry): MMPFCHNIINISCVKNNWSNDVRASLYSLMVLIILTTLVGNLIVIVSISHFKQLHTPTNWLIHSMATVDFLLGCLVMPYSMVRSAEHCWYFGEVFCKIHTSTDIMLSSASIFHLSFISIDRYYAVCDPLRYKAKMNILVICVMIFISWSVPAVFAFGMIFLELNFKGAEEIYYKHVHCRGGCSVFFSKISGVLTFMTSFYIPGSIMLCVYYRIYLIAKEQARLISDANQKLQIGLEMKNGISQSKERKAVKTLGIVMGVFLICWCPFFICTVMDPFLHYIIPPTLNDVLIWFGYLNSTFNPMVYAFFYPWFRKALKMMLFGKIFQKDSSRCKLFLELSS
Briefly: Counterscreen for agonists of the human trace amine associated receptor 1 (hTAAR1): Fluorescence-based cell-based high throughput dose response assay to identify hTAAR1 agonist that also desensitize TAAR1 receptor response. In kind it is functional.

In assay [16] the target is T4, Trace amine-associated receptor 1. Briefly: Fluorescence-based cell-based high throughput dose response assay to identify agonists of the human trace amine associated receptor 1 (TAAR1). The assay is classed as functional.
The nature of assay [17]: cells. The assay is classed as functional, cell-based. The source holds these as a separate data set.
For assay [18], the system named is HEK293. Briefly: cells. To be noted: Homo sapiens. The assay is classed as functional, cell-based. The source holds these as a separate data set.
For assay [19], the target named is Nucleotide-binding oligomerization domain-containing protein 2 (Homo sapiens, UniProt Q9HC29). Briefly: NOD2 signaling inhibitors, cell-based, luminescence, uHTS, HEK293 (AID 1566). The assay is classed as functional.
The subject of assay [20] is HEK293. Kind of assay: cells. To be noted: Homo sapiens. In kind it is functional, cell-based. This is another data set of the same source.
Assay [21] deals with HEK293. Briefly: NOD1 signaling inhibitors, primary screen, cell-based, luminescence, uHTS (AID 1578). To be noted: Homo sapiens. In kind it is functional.

Active and inactive are the calls of the source. Where only a bound is given, the exact number is not on record here.

Chain of fMet-Leu-Phe receptor (P21462 whole entry): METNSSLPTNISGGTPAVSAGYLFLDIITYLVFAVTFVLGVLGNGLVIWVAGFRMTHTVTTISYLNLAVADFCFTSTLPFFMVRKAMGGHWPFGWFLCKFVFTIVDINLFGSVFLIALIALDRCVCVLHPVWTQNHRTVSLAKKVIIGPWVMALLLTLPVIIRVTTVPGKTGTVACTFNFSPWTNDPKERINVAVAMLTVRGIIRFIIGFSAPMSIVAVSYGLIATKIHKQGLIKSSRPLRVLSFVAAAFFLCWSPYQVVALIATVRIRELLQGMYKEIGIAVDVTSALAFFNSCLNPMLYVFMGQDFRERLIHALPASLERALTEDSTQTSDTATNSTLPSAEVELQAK
Chain of Mitogen-activated protein kinase 10 (P53779 whole entry): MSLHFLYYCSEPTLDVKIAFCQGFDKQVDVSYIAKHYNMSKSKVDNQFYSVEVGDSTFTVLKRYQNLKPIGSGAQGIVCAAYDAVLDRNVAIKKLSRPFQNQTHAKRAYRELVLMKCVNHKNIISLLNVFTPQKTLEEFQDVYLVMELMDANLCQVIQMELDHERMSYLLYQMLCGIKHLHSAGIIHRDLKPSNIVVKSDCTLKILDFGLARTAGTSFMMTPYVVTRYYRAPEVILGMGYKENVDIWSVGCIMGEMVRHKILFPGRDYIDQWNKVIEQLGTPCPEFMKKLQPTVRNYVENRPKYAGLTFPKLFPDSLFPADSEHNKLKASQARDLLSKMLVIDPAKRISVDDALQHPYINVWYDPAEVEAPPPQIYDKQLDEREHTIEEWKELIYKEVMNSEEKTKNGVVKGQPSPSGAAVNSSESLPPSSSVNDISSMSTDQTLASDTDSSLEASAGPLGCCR
Chain of Nucleotide-binding oligomerization domain-containing protein 2 (Q9HC29 whole entry, the tested form may be a part): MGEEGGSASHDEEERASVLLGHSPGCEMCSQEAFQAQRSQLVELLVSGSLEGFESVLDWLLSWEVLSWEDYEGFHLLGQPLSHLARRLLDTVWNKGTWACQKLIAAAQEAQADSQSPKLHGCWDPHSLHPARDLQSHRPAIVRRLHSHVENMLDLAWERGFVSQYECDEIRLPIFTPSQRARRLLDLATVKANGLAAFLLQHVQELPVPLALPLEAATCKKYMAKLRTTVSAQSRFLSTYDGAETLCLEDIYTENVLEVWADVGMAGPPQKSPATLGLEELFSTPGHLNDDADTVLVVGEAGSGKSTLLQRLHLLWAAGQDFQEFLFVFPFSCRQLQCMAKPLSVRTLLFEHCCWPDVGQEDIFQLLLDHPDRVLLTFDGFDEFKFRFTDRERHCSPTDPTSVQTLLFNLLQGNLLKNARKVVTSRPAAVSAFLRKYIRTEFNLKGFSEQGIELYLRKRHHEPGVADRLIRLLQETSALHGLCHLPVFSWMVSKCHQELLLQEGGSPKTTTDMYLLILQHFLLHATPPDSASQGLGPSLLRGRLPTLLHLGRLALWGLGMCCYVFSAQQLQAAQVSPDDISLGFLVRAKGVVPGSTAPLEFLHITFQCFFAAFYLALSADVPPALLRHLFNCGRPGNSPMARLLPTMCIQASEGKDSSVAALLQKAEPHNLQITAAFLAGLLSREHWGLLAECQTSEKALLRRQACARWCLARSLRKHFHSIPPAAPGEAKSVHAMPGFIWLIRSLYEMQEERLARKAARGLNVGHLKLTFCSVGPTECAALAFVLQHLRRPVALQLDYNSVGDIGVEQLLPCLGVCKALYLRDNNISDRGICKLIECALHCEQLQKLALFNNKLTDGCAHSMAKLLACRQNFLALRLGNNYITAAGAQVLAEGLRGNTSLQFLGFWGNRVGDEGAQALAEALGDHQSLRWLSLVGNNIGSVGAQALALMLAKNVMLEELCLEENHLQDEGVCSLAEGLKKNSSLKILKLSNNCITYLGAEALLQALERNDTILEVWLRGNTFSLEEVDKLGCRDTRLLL

For the molecule `COCCCN1C(=O)C(O)=C(C(=O)c2ccco2)C1c1ccccc1` (stereo not given), the Ki at fMet-Leu-Phe receptor is 14.5 µM (active).

For the molecule `COc1ccc(S(=O)(=O)N(C(C)=O)c2ccc(OC(C)=O)c3ccccc23)cc1[N+](=O)[O-]`, the CC50 was > 20 µM (active) in [1] and 10.7 µM (active) in assay [3]. Moreover, the concentration at half-maximal activity (AC50) in assay [2] is 55.5 µM (active); in assay [4], 29.1 µM (active); in [5], 11.6 µM (active).

For `COc1ccc(CN(C(=O)c2ccccc2OC)C2CCS(=O)(=O)C2)cc1` (stereo not given), the Ki at fMet-Leu-Phe receptor is > 66.7 µM (inactive).

Consider `CSCCC(Nc1ncnc2ccc(Br)cc12)C(=O)O` (stereo not given), for which the IC50 was > 138 µM (inactive) in “cells [6]”, 45 µM (not active) in [7] and 1.91 µM (active) on Major prion protein.

For `COc1ccc2c(C)cc(SCC(=O)c3ccc4c(c3)OCO4)nc2c1`, the results for the EC50 in assay [8] and in assay [9] were > 60 µM (not active) and 1.53 µM (active), respectively. Also, in assay [10], the IC50 was > 67.5 µM (inactive).

Regarding `Cc1cc(C(=O)CCl)c(C)n1CCc1ccccc1`, the EC50 was > 29.9 µM (inactive) in the assay “cells [11]”; 24.4 µM (active) at Protein RecA; 1.86 µM (active) in [16]; > 20 µM (inactive) in assay [19]; 13.1 µM (active) in the assay with HEK293 [21]. Also, the IC50 with HEK293 [12] is 5.94 µM (active); in the assay on HEK293 [13], 13.4 µM (inactive); in [15] it was 9.06 µM (active); in “cells [17]”, > 29.9 µM (inactive); in the assay on HEK293 [18] it was 18 µM (active); in the assay with HEK293 [20], > 20 µM (inactive). Moreover, the AC50 in [14] was 16.9 µM (active).
